According to PubChem BioAssay (NCI):
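GI50 is the concentration that inhibits growth by half. TGI: concentration producing complete growth inhibition.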

Assays:
Test in all cases: NCI tumour cell line growth inhibition, 384-well format
786-0 renal = tested on: 786-0 renal
A498 renal = tested on: A498 renal
A549 NSCLC = tested on: A549 NSCLC
ACHN renal = tested on: ACHN renal
BT-549 breast = tested on: BT-549 breast
CAKI-1 renal = tested on: CAKI-1 renal
CCRF-CEM leukemia = tested on: CCRF-CEM leukemia
COLO 205 colon = tested on: COLO 205 colon
DU-145 prostate = tested on: DU-145 prostate
EKVX NSCLC = tested on: EKVX NSCLC
HCC-2998 colon = tested on: HCC-2998 colon
HCT-116 colon = tested on: HCT-116 colon
HCT-15 colon = tested on: HCT-15 colon
HL-60(TB) leukemia = tested on: HL-60(TB) leukemia
HOP-62 NSCLC = tested on: HOP-62 NSCLC
HOP-92 NSCLC = tested on: HOP-92 NSCLC
HS 578T breast = tested on: HS 578T breast
HT29 colon = tested on: HT29 colon
IGROV1 ovarian = tested on: IGROV1 ovarian
K-562 leukemia = tested on: K-562 leukemia
KM12 colon = tested on: KM12 colon
LOX IMVI melanoma = tested on: LOX IMVI melanoma
M14 melanoma = tested on: M14 melanoma
MALME-3M melanoma = tested on: MALME-3M melanoma
MCF7 breast = tested on: MCF7 breast
MDA-MB-231 breast = tested on: MDA-MB-231 breast
MDA-MB-435 melanoma = tested on: MDA-MB-435 melanoma
MDA-MB-468 breast = tested on: MDA-MB-468 breast
MOLT-4 leukemia = tested on: MOLT-4 leukemia

Which results are given for Nc1cc(C(F)(F)F)c(-c2nc(N3CCOCC3)nc(N3CCOCC3)n2)cn1?
GI50 ([…]-0 renal): 1320 nM; TGI (786-0 renal): 12100 nM; GI50 (A498 renal): 320 nM; TGI (A498 renal): 2260 nM; GI50 (A549 NSCLC): 902 nM; TGI (A549 NSCLC): 9000 nM; GI50 (ACHN renal): 570 nM; TGI (ACHN renal): 8660 nM; GI50 (BT-549 breast): 678 nM; TGI (BT-549 breast): 4420 nM; GI50 (CAKI-1 renal): 292 nM; TGI (CAKI-1 renal): 2950 nM; GI50 (CCRF-CEM leukemia): 1340 nM; TGI (CCRF-CEM leukemia): 10900 nM; GI50 (COLO 205 colon): 544 nM; TGI (COLO 205 colon): 9660 nM; GI50 (DU-145 prostate): 847 nM; TGI (DU-145 prostate): 21300 nM; GI50 (EKVX NSCLC): 342 nM; TGI (EKVX NSCLC): 3530 nM; GI50 (HCC-2998 colon): 1100 nM; TGI (HCC-2998 colon): 48900 nM; GI50 (HCT-116 colon): 833 nM; TGI (HCT-116 colon): 22500 nM; GI50 (HCT-15 colon): 497 nM; TGI (HCT-15 colon): > 100000 nM; GI50 (HL-60(TB) leukemia): 170 nM; TGI (HL-60(TB) leukemia): 3430 nM; GI50 (HOP-62 NSCLC): 1310 nM; TGI (HOP-62 NSCLC): 14100 nM; GI50 (HOP-92 NSCLC): 274 nM; TGI (HOP-92 NSCLC): 2120 nM; GI50 (HS 578T breast): 276 nM; TGI (HS 578T breast): 1860 nM; GI50 (HT29 colon): 554 nM; TGI (HT29 colon): 14800 nM; GI50 (IGROV1 ovarian): 119 nM; TGI (IGROV1 ovarian): 468 nM; GI50 (K-562 leukemia): 2780 nM; TGI (K-562 leukemia): 40500 nM; GI50 (KM12 colon): 1270 nM; TGI (KM12 colon): 14600 nM; GI50 (LOX IMVI melanoma): 1570 nM; TGI (LOX IMVI melanoma): 9360 nM; GI50 (M14 melanoma): 616 nM; TGI (M14 melanoma): 12500 nM; GI50 (MALME-3M melanoma): 174 nM; TGI (MALME-3M melanoma): 1030 nM; GI50 (MCF7 breast): 151 nM; TGI (MCF7 breast): 11900 nM; GI50 (MDA-MB-231 breast): 834 nM; TGI (MDA-MB-231 breast): 38700 nM; GI50 (MDA-MB-435 melanoma): 1600 nM; TGI (MDA-MB-435 melanoma): 9730 nM; GI50 (MDA-MB-468 breast): 353 nM; TGI (MDA-MB-468 breast): 2200 nM; GI50 (MOLT-4 leukemia): 293 nM
